The text below walks through data of patent publication US6818445B2 (Synaptic Pharmaceutical Corporation, priority 1994, dated 2004).

“And” between values parts separate entries of the source, which are not always exact repeats. Equal entries are not always repeated. Structures can show the parent of a compound that is named as a salt. Where two headings read alike, the source gives them in different places. Bounds are passed on as bounds.

Test [1] has as its system NPY-induced feeding behavior in satiated rats. Kind of test: NPY-induced food intake in satiated rats. It counts as in vivo, rat. The following applies: for Food intake (g) mean ± S.E.M., NPY + compound: compound 10 mg/kg i.p., then 300 pmole NPY i.c.v., 4 hours after NPY.
Description: The rats are individually housed in stainless steel cages and maintained on an 11:13 h light-dark cycle (lights off at 18:00 h) at a controlled temperature of 21-23° C. at all times. Water and food (NAFAG lab chow pellets NAFAG, Gossau, Switzerland) are available ad libidum.
The guide cannula is placed on the dura. Injection cannulas extend the guide cannulas −3.8 mm ventrally to the skull surface. Animals are allowed at least 4 days of recovery postoperatively before being used in the experiments. Cannula placement is checked postoperatively by testing all rats for their drinking response to a 50 ng intracerebroventricular (i.c.v.) injection of angiotensin II. Only rats which drink at least 2.5 ml of water within 30 min. after angiotensin II injection are used in the feeding studies.
All injections are made in the morning 2 hours after light onset. Peptides are injected in artificial cerebrospinal fluid (ACSF) in a volume of 5 μl.
Pellets are then removed from the cage subsequently at each selected time point and replaced with a new set of preweighed pellets. The food intake of animals treated with test compound may be calculated as a percentage of the food intake of control animals i.e., animals treated with vehicle. Alternatively, food intake for each group of animals subjected to a particular experimental condition may be expressed as the mean±S.E.M. Statistical analysis is performed by analysis of variance using the Student-Newman-Keuls test.
Food intake is reported as the mean±S.E.M. intake for a group of animals.
In another test the target is T1, human 5HT1F receptor (Homo sapiens, UniProt P30939).
T1 sequence (P30939 1-366): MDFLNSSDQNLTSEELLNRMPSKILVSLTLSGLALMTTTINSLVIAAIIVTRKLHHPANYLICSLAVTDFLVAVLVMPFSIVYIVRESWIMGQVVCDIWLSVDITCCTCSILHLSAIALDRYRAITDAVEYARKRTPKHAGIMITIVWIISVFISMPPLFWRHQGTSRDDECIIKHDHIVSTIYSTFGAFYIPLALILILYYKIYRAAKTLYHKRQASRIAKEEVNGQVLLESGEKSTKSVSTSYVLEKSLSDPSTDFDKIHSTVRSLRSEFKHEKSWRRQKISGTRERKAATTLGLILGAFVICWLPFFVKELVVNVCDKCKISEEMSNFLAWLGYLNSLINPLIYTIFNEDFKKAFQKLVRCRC
Kind of test: Binding to human 5HT1F receptor, [3H]serotonin.

The target in a further test is human 5HT1E receptor (Homo sapiens, UniProt P28566). Kind of test: Binding to human 5HT1E receptor, [3H]serotonin.
In another test the target is human Y4 receptor (Homo sapiens, UniProt P50391). It is filed as binding. The following applies: Table 14.
Another test concerns the target T2, human Y1 receptor (Homo sapiens, UniProt P25929).
T2 sequence (P25929 1-384): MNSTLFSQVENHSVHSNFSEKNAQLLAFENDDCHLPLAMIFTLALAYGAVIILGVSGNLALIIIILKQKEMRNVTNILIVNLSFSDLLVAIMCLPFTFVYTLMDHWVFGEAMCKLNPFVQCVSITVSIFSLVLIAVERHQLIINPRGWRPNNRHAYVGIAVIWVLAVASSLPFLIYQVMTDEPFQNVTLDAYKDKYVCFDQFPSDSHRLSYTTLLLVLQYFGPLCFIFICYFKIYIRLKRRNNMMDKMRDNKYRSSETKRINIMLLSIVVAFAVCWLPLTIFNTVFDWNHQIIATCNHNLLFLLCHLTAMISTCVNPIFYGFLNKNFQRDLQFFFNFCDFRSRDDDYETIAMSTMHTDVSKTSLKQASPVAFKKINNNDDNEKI
The following applies: read-out: Binding Affinity (Ki (nM) vs. ^125I-PYY) Human Receptor Y1; Table 14.

The target in a further test is T3, human Y2 receptor (Homo sapiens, UniProt P49146).
T3 sequence (P49146 1-381): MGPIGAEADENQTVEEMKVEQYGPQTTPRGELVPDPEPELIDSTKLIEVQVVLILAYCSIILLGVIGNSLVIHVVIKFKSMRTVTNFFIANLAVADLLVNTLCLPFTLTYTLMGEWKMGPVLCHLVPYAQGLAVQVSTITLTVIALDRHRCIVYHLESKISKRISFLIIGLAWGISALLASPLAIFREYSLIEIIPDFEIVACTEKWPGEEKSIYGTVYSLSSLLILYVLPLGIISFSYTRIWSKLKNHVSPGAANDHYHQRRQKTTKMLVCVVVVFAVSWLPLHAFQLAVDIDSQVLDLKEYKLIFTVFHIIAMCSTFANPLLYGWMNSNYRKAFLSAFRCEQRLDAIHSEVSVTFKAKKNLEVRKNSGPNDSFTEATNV
It counts as binding. The conditions noted are these: Table 14.

The test system of test [2] is food intake of 24 h food-deprived rats. The test can be described thus: Food intake in food-deprived rats. It counts as in vivo, rat. The following applies: 30 mg/kg i.p. after 24 h food deprivation, percentage of intake compared to control rats.
Description: At the end of the equilibration period, food is removed from the animals for 24 hours starting at 8:00 a.m. At the end of the fasting period compound or vehicle may be administered to the animals orally or by injection intraperitoneally or intravenously. After 10-60 min. food is returned to the animals and their food intake is monitored at various time periods during the following 24 hour period. The food intake of animals treated with test compound may be calculated as a percentage of the food intake of control animals (i.e., animals treated with vehicle). Alternatively, food intake for each group of animals subjected to a particular experimental condition may be expressed as the mean±S.E.M.
Therefore, the Y5 antagonists of Table 14 were administered by intraperitoneal injection at a dose of 30 mg/kg to conscious rats following a 24 h food deprivation. […] Measurements were performed two hours after administration of the test compound.
In a further test the target is human 5HT1Dβ receptor (Homo sapiens, UniProt P28222). Kind of test: Binding to human 5HT1Dβ receptor, [3H]serotonin. The following applies: cloned human receptor; read-out: Receptor (pKi) 5HT1Dβ (converted).
For another test, the target named is human 5HT1Dα receptor (Homo sapiens, UniProt P28221). Kind of test: Binding to human 5HT1Dα receptor, [3H]serotonin.
The target in the next test is T4, human α2C receptor (Homo sapiens, UniProt P18825).
T4 sequence (P18825 1-462): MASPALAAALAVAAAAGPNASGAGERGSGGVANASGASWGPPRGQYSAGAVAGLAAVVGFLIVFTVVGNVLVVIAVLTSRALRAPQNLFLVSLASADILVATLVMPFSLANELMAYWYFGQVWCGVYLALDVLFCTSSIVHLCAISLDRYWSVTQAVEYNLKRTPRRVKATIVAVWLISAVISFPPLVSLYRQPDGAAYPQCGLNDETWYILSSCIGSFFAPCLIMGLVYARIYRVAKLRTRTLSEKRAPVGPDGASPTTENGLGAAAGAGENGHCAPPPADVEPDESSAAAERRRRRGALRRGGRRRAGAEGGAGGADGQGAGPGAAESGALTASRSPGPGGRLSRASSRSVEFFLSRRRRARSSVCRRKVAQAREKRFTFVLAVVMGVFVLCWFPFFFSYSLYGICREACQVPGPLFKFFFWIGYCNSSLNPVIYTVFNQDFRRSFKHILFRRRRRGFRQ
Kind of test: Binding to cloned human α2C adrenergic receptor, [3H]rauwolscine.

The mark [3] stands for this setting: read-out: Binding Affinity (Ki (nM) vs. ^125I-PYY) Human Receptor Y4.
[4] abbreviates: read-out: Binding Affinity (Ki (nM) vs. ^125I-PYY) Human Receptor Y2.

Sequence of human 5HT1Dα receptor (P28221 whole entry): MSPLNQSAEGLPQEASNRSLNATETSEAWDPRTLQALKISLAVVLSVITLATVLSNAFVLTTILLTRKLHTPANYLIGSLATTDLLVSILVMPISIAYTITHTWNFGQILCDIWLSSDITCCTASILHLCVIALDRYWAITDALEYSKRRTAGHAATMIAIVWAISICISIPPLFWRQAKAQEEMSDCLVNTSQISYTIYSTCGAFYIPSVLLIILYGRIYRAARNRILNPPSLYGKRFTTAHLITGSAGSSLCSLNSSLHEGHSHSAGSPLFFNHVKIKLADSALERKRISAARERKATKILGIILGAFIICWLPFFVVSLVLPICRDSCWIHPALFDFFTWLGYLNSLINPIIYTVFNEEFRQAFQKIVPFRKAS
Sequence of human 5HT1E receptor (P28566 whole entry): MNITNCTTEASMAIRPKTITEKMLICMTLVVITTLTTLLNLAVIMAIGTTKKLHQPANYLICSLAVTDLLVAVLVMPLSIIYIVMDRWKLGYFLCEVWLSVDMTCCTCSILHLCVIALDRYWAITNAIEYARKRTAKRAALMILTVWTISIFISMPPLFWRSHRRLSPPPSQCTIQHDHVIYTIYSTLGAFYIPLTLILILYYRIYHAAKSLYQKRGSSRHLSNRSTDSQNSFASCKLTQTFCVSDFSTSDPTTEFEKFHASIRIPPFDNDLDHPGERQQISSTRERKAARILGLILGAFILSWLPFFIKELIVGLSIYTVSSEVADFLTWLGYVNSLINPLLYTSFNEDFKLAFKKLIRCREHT
Sequence of human 5HT1Dβ receptor (P28222 whole entry): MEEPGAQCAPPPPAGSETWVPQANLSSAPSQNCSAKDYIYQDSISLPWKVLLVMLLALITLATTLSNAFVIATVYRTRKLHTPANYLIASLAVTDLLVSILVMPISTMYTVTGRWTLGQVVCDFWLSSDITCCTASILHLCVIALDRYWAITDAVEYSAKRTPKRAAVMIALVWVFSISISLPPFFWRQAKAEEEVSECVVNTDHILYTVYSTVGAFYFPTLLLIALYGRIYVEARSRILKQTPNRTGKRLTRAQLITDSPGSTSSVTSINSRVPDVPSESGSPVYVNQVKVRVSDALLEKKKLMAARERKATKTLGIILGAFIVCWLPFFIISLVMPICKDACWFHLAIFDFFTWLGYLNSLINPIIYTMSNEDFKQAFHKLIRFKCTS
Sequence of human Y4 receptor (P50391 whole entry): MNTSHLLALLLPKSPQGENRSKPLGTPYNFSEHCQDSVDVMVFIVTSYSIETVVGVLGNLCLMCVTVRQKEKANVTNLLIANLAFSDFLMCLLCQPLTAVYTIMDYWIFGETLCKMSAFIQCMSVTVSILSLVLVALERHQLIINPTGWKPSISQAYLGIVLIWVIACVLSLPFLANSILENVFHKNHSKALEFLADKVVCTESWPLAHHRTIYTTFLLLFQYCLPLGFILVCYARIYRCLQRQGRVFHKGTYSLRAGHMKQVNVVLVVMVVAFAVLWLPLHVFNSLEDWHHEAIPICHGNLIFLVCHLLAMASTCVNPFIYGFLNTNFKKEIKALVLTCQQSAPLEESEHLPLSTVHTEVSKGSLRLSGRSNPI

Turning to “NPY: neuropeptide Y, species not given (Table 1, cited text); in Table 15 300 pmole porcine NPY i.c.v. [reference compound]”, the “Food intake (g) mean ± S.E.M., NPY” value in [1] (300 pmole NPY i.c.v. alone, cumulative intake 4 hours after NPY, one value per compound experiment) was 7.4 ± 0.5 g and 6.8 ± 1.0 g and 5.8 ± 0.5 g and 4.9 ± 0.4 g.
Turning to `Cl.Nc1nc(NC[C@H]2CC[C@H](CNS(=O)(=O)c3cccc4ccccc34)CC2)nc2ccccc12` [Compound 5, trans-Naphthalene-1-sulfonic Acid {4-[(4-amino-quinazolin-2-ylamino)-methyl]-cyclohexylmethyl}-amide Hydrochloride], in test [1], the “Food intake (g) mean ± S.E.M., NPY + compound” value (from here on “Food intake … NPY + compound”) turned out to be 4.1 ± 0.4 g. In addition, the Ki at human 5HT1F receptor and on human 5HT1E receptor was no less than 5.01 µM in each case.
Take `Cl.Cl.O=[N+]([O-])c1ccccc1S(=O)(=O)NCC1CCC(CNCc2ccc3ccccc3n2)CC1` (centres unmarked) [Compound 26]: the Ki is 19300 nM at human Y4 receptor (setting [3]), 23700 nM on human Y1 receptor and 58200 nM on human Y2 receptor (setting [4]). Besides, the “Two-hour food intake of food-deprived rats, Mean (%)” value (shortened to “Two-hour food intake … (%)”) in test [2] is 73%.
Take `O=S(=O)(NC[C@H]1CC[C@H](CNC(CO)Cc2ccc(Cl)cc2)CC1)c1cccc2ccccc12` (some centres unmarked) [Compound 25]: the Ki was 13100 nM on human Y4 receptor, 851 nM at human Y2 receptor, no less than 5.01 µM on human 5HT1F receptor and no less than 5.01 µM on human 5HT1E receptor. The “Two-hour food intake … (%)” value in test [2] came out at 32%.
Consider `c1ccc(Nc2nc(Nc3ccc(N4CCCCC4)cc3)nc3ccccc23)cc1` [Compound 6, 2-[4-(Piperidin-1-yl)-phenylaminol-4-phenylamino-quinazoline Dihydrochloride], for which, in test [2], the “Two-hour food intake … (%)” value is given as 38%. In addition, the Ki on human 5HT1Dβ receptor, on human 5HT1F receptor, at human 5HT1E receptor and at human 5HT1Dα receptor was no less than 5.01 µM in each case. In addition, the “Receptor (pKi) α2c” value at human α2C receptor amounted to 6.35.
`CNS(=O)(=O)Cc1ccc(Nc2nc(Nc3ccccc3)c3ccccc3n2)cc1.Cl` [Compound 11, N-Methyl-[4-(4-phenylamino-quinazolin-2-ylamino)-phenyl]-methanesulfonamide Hydrochloride]: the “Two-hour food intake … (%)” value in test [2] is 15%. Also, the Ki on human 5HT1Dβ receptor, on human 5HT1F receptor, at human 5HT1E receptor and on human 5HT1Dα receptor was no less than 5.01 µM in each case.
As for `COc1ccc(Nc2nc(Nc3ccccc3)c3cccc(OC)c3n2)cc1.Cl` [Compound 9, 8-Methoxy-2-(4-methoxy-phenylamino)-4-phenylamino-quinazoline Hydrochloride], the “Two-hour food intake … (%)” value in test [2] is 40%. Besides, the Ki at human 5HT1Dβ receptor, on human 5HT1F receptor, on human 5HT1E receptor and at human 5HT1Dα receptor was no less than 5.01 µM in each case.
With `CNS(=O)(=O)Cc1ccc(Nc2nc(Nc3ccccc3)c3cc(OC)ccc3n2)cc1.Cl` [Compound 10, N-Methyl-[4-(6-methoxy-4-phenylamino-quinazolin-2-ylamino)-phenyl]-methanesulfonamide Hydrochloride], the “Two-hour food intake … (%)” value in [2] is recorded as 74%. Further, the Ki at human 5HT1Dβ receptor, on human 5HT1F receptor, on human 5HT1E receptor and on human 5HT1Dα receptor was no less than 5.01 µM each time.
In the case of `Cl.c1ccc(Nc2nc(Nc3ccccc3)c3ccccc3n2)cc1` [Compound 1, 2,4-Diphenylamino-quinazoline Hydrochloride], the “Food intake … NPY + compound” value in test [1] was found to be 4.6 ± 0.6 g. In addition, the “Two-hour food intake … (%)” value in [2] is 34%. In addition, the Ki on human 5HT1Dβ receptor, on human 5HT1F receptor and on human 5HT1E receptor was no less than 5.01 µM each time.
Regarding `Nc1nc(NCCCCCCNS(=O)(=O)c2cccc3ccccc23)nc2ccccc12` [Compound 2, Naphthalene-1-sulfonic Acid [6-(4-amino-quinazolin-2-ylamino)-hexyl]-amide], the “Two-hour food intake … (%)” value in test [2] is 42%.
In the case of `Cl.O=S(=O)(NCC1CCC(CNCc2cccc3ccccc23)CC1)c1ccccc1C(F)(F)F` (centres unmarked) [Compound 23], the Ki at human Y4 receptor (setting [3]) amounted to 21500 nM; at human Y1 receptor, 14500 nM; on human Y2 receptor (setting [4]), 617 nM. The “Two-hour food intake … (%)” value in test [2] amounted to 58%.
On the same counts, the results for `Cl.O=S(=O)(NCC1CCC(CNCc2ccc3ccccc3c2)CC1)c1ccccc1C(F)(F)F` (centres unmarked) [Compound 21] are 18500 nM, 13000 nM, 1610 nM and 80%.
With `Cl.O=S(=O)(NC[C@H]1CC[C@H](CNCC2CCc3ccccc3C2)CC1)c1ccc2ccccc2c1` (some centres unmarked) [Compound 17], the “Food intake … NPY + compound” value in [1] was 3.8 ± 0.4 g. In [2], the “Two-hour food intake … (%)” value turned out to be 27%.
As for `CC(=O)O[C@H]1CC[C@H](Nc2nc(Nc3ccccc3)c3ccccc3n2)CC1` [Compound 7, trans-2-(4-Acetoxy-cvclohexylamino)-4-phenylamino-quinazoline Hydrochloride], the Ki at human 5HT1Dβ receptor, on human 5HT1F receptor and on human 5HT1E receptor was no less than 5.01 µM each time.
